# Source: patent US10414763B2 (CANCER RESEARCH TECHNOLOGY LIMITED, priority 2014, dated 2019)
# Target: T1, full-length human PKCι (Homo sapiens, UniProt P41743)
# T1 construct: Recombinant, full-length human PKCι expressed in Sf21 insect cells is also commercially available; purchased EMD Millipore; host or cells: Sf21 insect cells (baculovirus)
# T1 sequence (P41743 1-596): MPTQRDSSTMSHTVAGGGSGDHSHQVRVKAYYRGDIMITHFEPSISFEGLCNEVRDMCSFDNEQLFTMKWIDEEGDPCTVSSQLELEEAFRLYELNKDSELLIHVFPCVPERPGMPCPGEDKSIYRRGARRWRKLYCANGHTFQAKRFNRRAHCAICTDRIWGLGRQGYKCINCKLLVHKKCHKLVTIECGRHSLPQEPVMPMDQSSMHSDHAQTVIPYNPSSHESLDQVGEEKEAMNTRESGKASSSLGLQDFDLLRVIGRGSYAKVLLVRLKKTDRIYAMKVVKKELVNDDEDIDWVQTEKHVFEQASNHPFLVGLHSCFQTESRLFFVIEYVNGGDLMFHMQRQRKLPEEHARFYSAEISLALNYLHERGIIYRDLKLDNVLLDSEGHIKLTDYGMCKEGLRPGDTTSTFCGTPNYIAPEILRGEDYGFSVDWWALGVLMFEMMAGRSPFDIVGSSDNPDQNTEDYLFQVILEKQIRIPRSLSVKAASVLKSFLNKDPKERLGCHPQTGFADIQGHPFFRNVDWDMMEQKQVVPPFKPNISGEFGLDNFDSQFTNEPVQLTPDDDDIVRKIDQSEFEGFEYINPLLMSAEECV
# Assay: PKCι IC50 IMAP fluorescence polarisation assay, full-length enzyme, 150 μM ATP
# Type: biochemical
# Conditions: read-out: IC50 in IMAP assay against full length PKCi at 150 μM ATP
# Description: Assays are based on the ability of PKCι to phosphorylate a commercially available peptide substrate in vitro. The peptide substrate is FAM-PKCε pseudopeptide derived peptide, and comprises the amino acid sequence 5FAM-ERMRPRKRQGSVRRRV-NH2. Recombinant, full-length human PKCι expressed in Sf21 insect cells is also commercially available. Recombinant, kinase-domain human PKCι is expressed and purified in-house.
# The procedure below explains how dose response curves for inhibitors of PKCι are obtained. The screen described is for a 384 well format but the assay can be adapted to 1536 or other formats as required.
# Compounds to be tested are dissolved in 100% DMSO. Compounds are diluted as required to give a final concentration of 4% DMSO (v/v) in the assay. 1 μl is plated into 384 well black low-binding flat bottomed assay plates which are used immediately. Dilutions and additions of compound to assay plates are carried out using Matrix WellMate® and Matrix PlateMate® Plus liquid handling systems.
# On the day of the screen PKCι/substrate working solution, and ATP working solution, are prepared in buffer containing 20 mM tris-HCl pH7.5, 10 mM MgCl2, 0.01% Triton X100, 250 μM EGTA and 1 mM DTT. The final concentration of PKCι used varies depending on the batch of protein but is typically 15 pM. The final concentration of peptide substrate in the assay is 100 nM. ATP is used at a final concentration of 150 μM or 25 μM in the assays containing full-length or kinase-domain PKCι respectively, which corresponds to five times or equal to the KM^APP for ATP for each enzyme, respectively. The final buffer concentration in the assay is 18 mM tris-HCl pH7.5, 9 mM MgCl2, 0.009% Triton X100, 225 μM EGTA and 0.9 mM DTT. Relevant controls are included, namely no compound and no enzyme. 5 μl PKCι/substrate working solution at 30 pM and 200 nM, respectively, is added to the wells, followed by 4 μl ATP working solution at 375 μM or 62.5 μM for full-length or kinase-domain PKCι respectively, using a 16 channel Matrix pipette. The reaction is allowed to incubate for 60 minutes at room temperature, before the reaction is stopped and developed by the addition of 20 μl IMAP™ development reagent (Molecular Devices). IMAP development reagent consists of 0.25% (v/v) IMAP progressive binding reagent, 17% (v/v) IMAP progressive binding buffer A and 3% (v/v) IMAP progressive binding buffer B. The plates are then incubated for 2 hours at room temperature before being read using an appropriate plate reader, for example a Molecular Devices HT Analyst or a BMG Pherastar. Plates are read using a fluorescence polarisation protocol with excitation at 485 nm and emission at 530 nm, and dichroic mirror at 505 nm.
# Percentage inhibition values are calculated from fluorescence polarisation values, using the no compound and no enzyme control values as 0% and 100% inhibition, respectively. IC50 determination is performed with ExcelFit software (IDBS) using curve fit 205. Z′ factors are determined for each plate tested and are all above 0.5.
# Alternatively, compounds were tested for their ability to inhibit the kinase activity of recombinant human baculovirus-expressed PKCiota using the immobilized metal-ion affinity particle (IMAP®) fluorescence polarization detection system (Molecular Devices, Sunnyvale, Calif.). PKCiota/IMAP® substrate mixture (2×) was prepared in 1×IMAP assay buffer (Molecular Devices) containing 1 mM DTT so that the final assay concentrations were 15 pM PKCiota (EMD Millipore, Billerica, Mass.) and 100 nM 5-fluorescein-amidite (FAM)-PKC ? -pseudosubstrate (5-FAM-ERMRPRKRQGSVRRRV-NH2) (Molecular Devices). The 2× working solution was added at 5 μL/well into a 384-well black, non-binding, flat bottom assay plate (Corning, Corning, N.Y.). […]
row,SMILES,IC50
1,"OC1CNCCC(Nc2nc(-c3ccnc4[nH]c5ccccc5c34)nc3cncc(C4CCC4)c23)C1 (racemic) [Example 231, Trans- or cis-(±)-5-[5-Cyclobutyl-2-(9H-pyrido[2,3-b]indol-4-yl)-pyrido[3,4-d]pyrimidin-4-ylamino]-azepan-3-ol]",< 100 nM
2,"CC1(C)CNCCC1Nc1nc(-c2ccnc(Nc3ncn(-c4ccccc4)n3)c2)nc2cncc(C3CC3)c12 (racemic) [Example 233, rac-{5-Cyclopropyl-2-[2-(1-phenyl-1H-1,2,4-triazol-3-ylamino)-pyridin-4-yl]-pyrido[3,4-d]pyrimidin-4-yl}-(3,3-dimethyl-piperidin-4-yl)-amine]",< 100 nM
3,"CN(c1nc(-c2ccnc(Nc3ncn(-c4ccccc4)n3)c2)nc2cncc(C3CC3)c12)C1CCNCC1(C)C (racemic) [Example 234, rac-{5-Cyclopropyl-2-[2-(1-phenyl-1H-1,2,4-triazol-3-ylamino)-pyridin-4-yl]-pyrido[3,4-d]pyrimidin-4-yl}-(3,3-dimethyl-piperidin-4-yl)-methyl-amine]",< 100 nM
4,"CC1(C)CNCCC1Nc1nc(-c2ccnc(Nc3ncn(Cc4ccccc4)n3)c2)nc2cncc(C3CC3)c12 (racemic) [Example 237, rac-{2-[2-(1-Benzyl-1H-1,2,4-triazol-3-ylamino)-pyridin-4-yl]-5-cyclopropyl-pyrido[3,4-d]pyrimidin-4-yl}-(3,3-dimethyl-piperidin-4-yl)-amine]",< 100 nM
5,"CN(c1nc(-c2ccnc(Nc3ncn(Cc4ccccc4)n3)c2)nc2cncc(C3CC3)c12)C1CCNCC1(C)C (racemic) [Example 238, rac-{2-[2-(1-Benzyl-1H-1,2,4-triazol-3-ylamino)-pyridin-4-yl]-5-cyclopropyl-pyrido[3,4-d]pyrimidin-4-yl}-(3,3-dimethyl-piperidin-4-yl)-methyl-amine]",< 100 nM
6,"O[C@]12CCN(c3nc(-c4ccnc(Nc5ncn(Cc6ccccc6)n5)c4)nc4cncc(C5CC5)c34)[C@H]1CCNC2 (racemic) [Example 240, rac-(3aS,7aS)-1-{2-[2-(1-Benzyl-1H-1,2,4-triazol-3-ylamino)-pyridin-4-yl]-5-cyclopropyl-pyrido[3,4-d]pyrimidin-4-yl}-octahydro-pyrrolo[3,2-c]pyridin-3a-ol]",< 100 nM
7,C[C@@]1(O)CNCC[C@H]1Nc1nc(-c2ccnc3[nH]c4ccccc4c23)nc2cncc(C3CCC3)c12 (racemic) [Example 246],< 100 nM
8,"C[C@@]1(O)CNCC[C@H]1Nc1nc(-c2ccnc3[nH]c4ccccc4c23)nc2cncc(C3CC3)c12 (racemic) [Example 247, rac-(3R,4R)-4-[5-Cyclopropyl-2-(9H-pyrido[2,3-b]indol-4-yl)-pyrido[3,4-d]pyrimidin-4-ylamino]-3-methyl-piperidin-3-ol]",< 100 nM
9,"COc1cncc2nc(-c3ccnc(Nc4nc(F)ccc4F)c3)nc(NC3CCNCC3(C)C)c12 (racemic) [Example 261, rac-2-[2-[(3,6-difluoro-2-pyridyl)amino]-4-pyridyl]-N-(3,3-dimethyl-4-piperidyl)-5-methoxy-pyrido[3,4-d]pyrimidin-4-amine]",< 100 nM
10,C[C@H]1CNCC[C@@H]1Nc1nc(-c2ccnc3[nH]c(C(F)(F)F)cc23)nc2cncc(C3CCC3)c12 (racemic) [Example 262],< 100 nM
11,C[C@@H]1CNCC[C@@H]1Nc1nc(-c2ccnc3[nH]c(C(F)(F)F)cc23)nc2cncc(C3CCC3)c12 (racemic) [Example 263],< 100 nM
12,"O[C@H]1CNCC[C@H]1Nc1nc(-c2ccnc(Nc3ccc4ccccc4n3)c2)nc2cncc(C3CCC3)c12 (racemic) [Example 270, rac-(3S,4R)-4-{5-Cyclobutyl-2-[2-(quinolin-2-ylamino)-pyridin-4-yl]-pyrido[3,4-d]pyrimidin-4-ylamino}-piperidin-3-ol]",< 100 nM
13,"O[C@@H]1CNCC[C@H]1Nc1nc(-c2ccnc(Nc3ccc4ccccc4n3)c2)nc2cncc(C3CCC3)c12 (racemic) [Example 273, rac-(3R,4R)-4-{5-Cyclobutyl-2-[2-(quinolin-2-ylamino)-pyridin-4-yl]-pyrido[3,4-d]pyrimidin-4-ylamino}-piperidin-3-ol]",< 100 nM
14,"C[C@@H]1CNCC[C@@H]1Nc1nc(-c2ccnc(Nc3nc4ccccn4n3)c2)nc2cncc(C3CCC3)c12 (racemic) [Example 276, {5-Cyclobutyl-2-[2-([1,2,4]triazolo[1,5-a]pyridin-2-ylamino)-pyridin-4-yl]-pyrido[3,4-d]pyrimidin-4-yl}-(rac-(3R,4S)-3-methyl-piperidin-4-yl)-amine]",< 100 nM
15,"C[C@@H]1CNCC[C@H]1Nc1nc(-c2ccnc(Nc3nc4ccccn4n3)c2)nc2cncc(C3CCC3)c12 (racemic) [Example 277, {5-Cyclobutyl-2-[2-([1,2,4]triazolo[1,5-a]pyridin-2-ylamino)-pyridin-4-yl]-pyrido[3,4-d]pyrimidin-4-yl}-(rac-(3R,4R)-3-methyl-piperidin-4-yl)-amine]",< 100 nM
16,"C[C@@H]1CNCC[C@@H]1Nc1nc(-c2ccnc(Nc3ncccc3F)c2)nc2cncc(C3CCC3)c12 (racemic) [Example 282, {5-Cyclobutyl-2-[2-(3-fluoro-pyridin-2-ylamino)-pyridin-4-yl]-pyrido[3,4-d]pyrimidin-4-yl}-(rac-(3R,4S)-3-methyl-piperidin-4-yl)-amine]",< 100 nM
17,"C[C@@H]1CNCC[C@@H]1Nc1nc(-c2ccnc(Nc3ncc(F)cc3F)c2)nc2cncc(C3CCC3)c12 (racemic) [Example 283, {5-Cyclobutyl-2-[2-(3,5-difluoro-pyridin-2-ylamino)-pyridin-4-yl]-pyrido[3,4-d]pyrimidin-4-yl}-(rac-(3R,4S)-3-methyl-piperidin-4-yl)-amine]",< 100 nM
18,"O[C@H]1CNC[C@@H]1Nc1nc(-c2ccnc(Nc3nc(F)ccc3F)c2)nc2cncc(C3CCC3)c12 (racemic) [Example 285, rac-(3S,4S)-4-{5-Cyclobutyl-2-[2-(3,6-difluoro-pyridin-2-ylamino)-pyridin-4-yl]-pyrido[3,4-d]pyrimidin-4-ylamino}-pyrrolidin-3-ol]",< 100 nM
19,"O[C@@H]1CNCC[C@H]1Nc1nc(-c2ccnc(Nc3ncccc3F)c2)nc2cncc(C3CCC3)c12 (racemic) [Example 286, rac-(3R,4R)-4-{5-Cyclobutyl-2-[2-(3-fluoro-pyridin-2-ylamino)-pyridin-4-yl]-pyrido[3,4-d]pyrimidin-4-ylamino}-piperidin-3-ol]",< 100 nM
20,"O[C@@H]1CNCC[C@H]1Nc1nc(-c2ccnc(Nc3ncc(F)cc3F)c2)nc2cncc(C3CCC3)c12 (racemic) [Example 287, rac-(3R,4R)-4-{5-Cyclobutyl-2-[2-(3,5-difluoro-pyridin-2-ylamino)-pyridin-4-yl]-pyrido[3,4-d]pyrimidin-4-ylamino}-piperidin-3-ol]",< 100 nM
